From US11878956B2, “Metal salts and uses thereof” (Inspirna, Inc., priority 2019, dated 2024)
Where two headings read alike, the source gives them in different places. Blank lines part the entries; values can stand above or below the compound they belong to.

Assays:
[1] = cited from earlier work
[2] = oral PK in Sprague-Dawley rats; assay type: in vivo
[3] = target: T1, 1A1 (Homo sapiens, UniProt P04798); assay: CYP inhibition in vitro; assay type: in vitro ADME
T1 sequence (P04798 1-512): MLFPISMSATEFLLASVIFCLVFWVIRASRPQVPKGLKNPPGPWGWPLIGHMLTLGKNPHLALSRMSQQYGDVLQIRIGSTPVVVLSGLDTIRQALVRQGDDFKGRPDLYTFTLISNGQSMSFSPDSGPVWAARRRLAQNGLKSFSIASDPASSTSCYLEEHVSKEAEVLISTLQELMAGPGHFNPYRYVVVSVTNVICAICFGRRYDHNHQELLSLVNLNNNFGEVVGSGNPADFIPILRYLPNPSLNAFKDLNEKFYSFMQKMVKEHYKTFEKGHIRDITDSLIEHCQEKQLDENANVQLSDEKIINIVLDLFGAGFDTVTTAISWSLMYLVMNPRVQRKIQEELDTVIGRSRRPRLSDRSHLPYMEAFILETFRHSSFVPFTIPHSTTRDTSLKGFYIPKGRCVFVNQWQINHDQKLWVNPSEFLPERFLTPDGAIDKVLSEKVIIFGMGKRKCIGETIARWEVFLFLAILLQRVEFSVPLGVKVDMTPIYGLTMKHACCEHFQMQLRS

[4] = target: CYP3A4 (Homo sapiens, UniProt P08684); assay: in vitro metabolism by CYP isoforms; assay type: in vitro ADME
Sequence of CYP3A4 (P08684 whole entry, canonical isoform): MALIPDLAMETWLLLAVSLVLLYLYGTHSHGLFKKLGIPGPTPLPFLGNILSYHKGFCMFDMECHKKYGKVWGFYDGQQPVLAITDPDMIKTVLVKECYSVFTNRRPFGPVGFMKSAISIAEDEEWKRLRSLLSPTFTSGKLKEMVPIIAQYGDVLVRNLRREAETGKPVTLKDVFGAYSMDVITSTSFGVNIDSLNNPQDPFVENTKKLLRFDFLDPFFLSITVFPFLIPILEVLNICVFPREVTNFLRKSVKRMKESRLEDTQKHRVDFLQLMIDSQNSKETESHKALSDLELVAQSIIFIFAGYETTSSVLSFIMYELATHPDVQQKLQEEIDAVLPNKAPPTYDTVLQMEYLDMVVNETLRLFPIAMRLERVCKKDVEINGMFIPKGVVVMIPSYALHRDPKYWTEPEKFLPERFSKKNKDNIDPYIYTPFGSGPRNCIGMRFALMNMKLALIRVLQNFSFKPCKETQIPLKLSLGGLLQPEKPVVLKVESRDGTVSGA

[5] = system: melanoma, glioblastoma, TNBC, ovarian cancer, and lung cancer; assay: syngeneic and human xenograft mouse tumor models, primary tumor growth; assay type: in vivo
[6] = clinical safety in subjects treated with Compound 1; assay type: in vivo
[7] = target: 2C19 (Homo sapiens, UniProt P33261); assay: CYP inhibition in vitro; assay type: in vitro ADME
Sequence of 2C19 (P33261 whole entry): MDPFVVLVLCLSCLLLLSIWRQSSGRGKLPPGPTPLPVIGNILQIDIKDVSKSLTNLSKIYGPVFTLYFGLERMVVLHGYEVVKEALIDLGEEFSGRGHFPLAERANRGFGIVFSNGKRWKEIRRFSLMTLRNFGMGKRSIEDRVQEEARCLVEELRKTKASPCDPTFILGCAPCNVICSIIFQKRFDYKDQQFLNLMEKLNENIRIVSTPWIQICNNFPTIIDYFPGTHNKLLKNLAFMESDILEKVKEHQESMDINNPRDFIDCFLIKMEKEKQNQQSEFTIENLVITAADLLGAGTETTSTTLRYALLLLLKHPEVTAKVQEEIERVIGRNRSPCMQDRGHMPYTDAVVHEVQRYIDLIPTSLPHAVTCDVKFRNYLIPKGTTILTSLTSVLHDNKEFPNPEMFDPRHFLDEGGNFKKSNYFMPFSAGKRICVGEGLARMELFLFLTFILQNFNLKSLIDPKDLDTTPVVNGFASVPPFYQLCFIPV

[8] = oral PK in male Beagle dogs; assay type: in vivo
[9] = target: T2, 2A6 (Homo sapiens, UniProt P11509); assay: CYP inhibition in vitro; assay type: in vitro ADME
T2 sequence (P11509 1-494): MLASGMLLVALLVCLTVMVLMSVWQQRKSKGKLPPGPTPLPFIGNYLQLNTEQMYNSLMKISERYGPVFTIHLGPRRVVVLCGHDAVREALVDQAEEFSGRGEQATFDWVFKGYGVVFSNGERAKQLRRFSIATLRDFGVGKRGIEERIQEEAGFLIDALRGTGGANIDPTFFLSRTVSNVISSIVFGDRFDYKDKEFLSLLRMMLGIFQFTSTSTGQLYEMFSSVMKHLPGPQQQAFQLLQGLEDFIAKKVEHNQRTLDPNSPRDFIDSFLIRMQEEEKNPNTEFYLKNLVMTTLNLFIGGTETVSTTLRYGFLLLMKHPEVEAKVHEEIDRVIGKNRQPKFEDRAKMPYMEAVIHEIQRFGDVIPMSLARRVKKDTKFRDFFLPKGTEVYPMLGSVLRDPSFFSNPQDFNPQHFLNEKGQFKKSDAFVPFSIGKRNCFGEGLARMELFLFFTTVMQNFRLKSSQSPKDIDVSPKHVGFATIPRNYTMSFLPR

[10] = target: P-glucoprotein (P-gp) (Homo sapiens, UniProt P08183); assay: efflux transporter inhibition in vitro; assay type: in vitro ADME
Sequence of P-glucoprotein (P-gp) (P08183 whole entry): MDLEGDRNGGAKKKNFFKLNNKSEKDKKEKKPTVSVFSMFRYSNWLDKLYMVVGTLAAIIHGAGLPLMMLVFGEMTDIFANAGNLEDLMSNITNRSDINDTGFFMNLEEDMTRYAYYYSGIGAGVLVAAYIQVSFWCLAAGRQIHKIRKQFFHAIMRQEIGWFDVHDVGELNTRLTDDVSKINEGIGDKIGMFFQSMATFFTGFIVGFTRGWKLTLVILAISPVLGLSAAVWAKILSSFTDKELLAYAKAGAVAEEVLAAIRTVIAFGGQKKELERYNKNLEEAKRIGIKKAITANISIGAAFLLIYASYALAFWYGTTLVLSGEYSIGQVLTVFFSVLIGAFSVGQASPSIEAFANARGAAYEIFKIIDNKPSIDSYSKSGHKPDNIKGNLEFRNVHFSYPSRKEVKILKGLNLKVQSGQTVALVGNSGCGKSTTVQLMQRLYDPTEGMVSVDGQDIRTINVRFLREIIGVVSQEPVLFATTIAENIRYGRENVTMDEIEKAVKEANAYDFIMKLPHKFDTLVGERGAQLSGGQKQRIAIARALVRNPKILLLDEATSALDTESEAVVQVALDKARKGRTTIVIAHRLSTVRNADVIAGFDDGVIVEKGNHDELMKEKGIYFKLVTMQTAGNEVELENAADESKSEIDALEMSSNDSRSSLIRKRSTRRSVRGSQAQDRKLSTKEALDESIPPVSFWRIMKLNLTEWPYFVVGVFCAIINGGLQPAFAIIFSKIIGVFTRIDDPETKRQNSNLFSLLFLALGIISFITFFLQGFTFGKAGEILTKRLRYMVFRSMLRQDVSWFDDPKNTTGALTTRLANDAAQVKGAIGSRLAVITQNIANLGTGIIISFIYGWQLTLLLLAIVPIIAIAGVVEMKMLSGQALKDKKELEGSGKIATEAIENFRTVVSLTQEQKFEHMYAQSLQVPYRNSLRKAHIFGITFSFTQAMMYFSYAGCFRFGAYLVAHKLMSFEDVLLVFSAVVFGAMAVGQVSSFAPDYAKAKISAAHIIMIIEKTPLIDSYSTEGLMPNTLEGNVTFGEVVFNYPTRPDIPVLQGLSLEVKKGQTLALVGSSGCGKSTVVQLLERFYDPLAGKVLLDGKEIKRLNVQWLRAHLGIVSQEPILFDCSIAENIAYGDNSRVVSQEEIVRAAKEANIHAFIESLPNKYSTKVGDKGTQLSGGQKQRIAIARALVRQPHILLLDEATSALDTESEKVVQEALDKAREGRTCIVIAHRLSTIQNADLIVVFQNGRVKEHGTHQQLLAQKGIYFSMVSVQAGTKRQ

[11] = system: CYP1A2; assay: CYP induction
[12] = target: 2C9 (Homo sapiens, UniProt P11712); assay: CYP inhibition in vitro; assay type: in vitro ADME
Sequence of 2C9 (P11712 whole entry): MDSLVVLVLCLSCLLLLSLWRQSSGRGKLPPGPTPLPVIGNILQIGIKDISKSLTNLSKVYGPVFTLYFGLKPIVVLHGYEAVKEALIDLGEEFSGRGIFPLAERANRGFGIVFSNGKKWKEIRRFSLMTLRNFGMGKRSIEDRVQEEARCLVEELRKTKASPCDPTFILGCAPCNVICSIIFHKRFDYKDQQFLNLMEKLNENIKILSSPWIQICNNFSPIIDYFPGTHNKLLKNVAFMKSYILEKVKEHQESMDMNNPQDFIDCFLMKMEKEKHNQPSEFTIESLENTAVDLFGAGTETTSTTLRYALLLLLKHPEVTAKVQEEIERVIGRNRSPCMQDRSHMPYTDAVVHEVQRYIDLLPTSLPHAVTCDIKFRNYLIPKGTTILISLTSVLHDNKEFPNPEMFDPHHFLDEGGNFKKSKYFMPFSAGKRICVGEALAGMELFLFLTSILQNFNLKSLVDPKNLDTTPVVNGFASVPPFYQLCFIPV

[13] = system: CYP3A; assay: CYP3A time-dependent inhibition in vitro; assay type: in vitro ADME; settings: testosterone as the substrate
[14] = system: CYP2B6; assay: CYP induction in cryopreserved hepatocytes; assay type: in vitro ADME; settings: 1 concentration in 1/3 donors
[15] = neurobehavioral FOB and respiratory evaluations in rats; assay type: in vivo
[16] = target: 2E1 (Homo sapiens, UniProt P05181); assay: CYP inhibition in vitro; assay type: in vitro ADME
Sequence of 2E1 (P05181 whole entry): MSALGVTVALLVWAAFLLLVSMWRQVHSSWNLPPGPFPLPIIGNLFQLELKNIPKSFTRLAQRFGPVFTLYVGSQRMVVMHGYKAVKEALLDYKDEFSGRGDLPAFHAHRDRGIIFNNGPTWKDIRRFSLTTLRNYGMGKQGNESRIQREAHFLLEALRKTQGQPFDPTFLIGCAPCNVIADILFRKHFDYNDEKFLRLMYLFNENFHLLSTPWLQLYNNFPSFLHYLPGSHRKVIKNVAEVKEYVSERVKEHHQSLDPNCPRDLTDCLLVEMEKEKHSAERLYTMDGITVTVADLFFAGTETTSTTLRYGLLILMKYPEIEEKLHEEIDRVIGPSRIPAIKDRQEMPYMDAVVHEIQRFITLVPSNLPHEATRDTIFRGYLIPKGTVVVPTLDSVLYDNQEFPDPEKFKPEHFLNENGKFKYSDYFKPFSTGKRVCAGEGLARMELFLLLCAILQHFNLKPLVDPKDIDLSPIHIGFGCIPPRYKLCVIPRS

[17] = ECG and heart rate in dogs (safety pharmacology); assay type: in vivo
[18] = oral PK in Cynomolgus monkeys; assay type: in vivo
[19] = system: CYP2E1, CYP2C9, CYP2C19, and possibly CYP2J2; assay: in vitro metabolism by CYP isoforms (other substrates); assay type: in vitro ADME
[20] = system: ApoE; assay: ApoE gene expression induction in hPBMCs; assay type: cell-based, human
[21] = target: human ether-à-go-go-related gene (hERG) channel (Homo sapiens, UniProt Q12809); assay: in vitro hERG assay; assay type: cell-based
Sequence of human ether-à-go-go-related gene (hERG) channel (Q12809 whole entry): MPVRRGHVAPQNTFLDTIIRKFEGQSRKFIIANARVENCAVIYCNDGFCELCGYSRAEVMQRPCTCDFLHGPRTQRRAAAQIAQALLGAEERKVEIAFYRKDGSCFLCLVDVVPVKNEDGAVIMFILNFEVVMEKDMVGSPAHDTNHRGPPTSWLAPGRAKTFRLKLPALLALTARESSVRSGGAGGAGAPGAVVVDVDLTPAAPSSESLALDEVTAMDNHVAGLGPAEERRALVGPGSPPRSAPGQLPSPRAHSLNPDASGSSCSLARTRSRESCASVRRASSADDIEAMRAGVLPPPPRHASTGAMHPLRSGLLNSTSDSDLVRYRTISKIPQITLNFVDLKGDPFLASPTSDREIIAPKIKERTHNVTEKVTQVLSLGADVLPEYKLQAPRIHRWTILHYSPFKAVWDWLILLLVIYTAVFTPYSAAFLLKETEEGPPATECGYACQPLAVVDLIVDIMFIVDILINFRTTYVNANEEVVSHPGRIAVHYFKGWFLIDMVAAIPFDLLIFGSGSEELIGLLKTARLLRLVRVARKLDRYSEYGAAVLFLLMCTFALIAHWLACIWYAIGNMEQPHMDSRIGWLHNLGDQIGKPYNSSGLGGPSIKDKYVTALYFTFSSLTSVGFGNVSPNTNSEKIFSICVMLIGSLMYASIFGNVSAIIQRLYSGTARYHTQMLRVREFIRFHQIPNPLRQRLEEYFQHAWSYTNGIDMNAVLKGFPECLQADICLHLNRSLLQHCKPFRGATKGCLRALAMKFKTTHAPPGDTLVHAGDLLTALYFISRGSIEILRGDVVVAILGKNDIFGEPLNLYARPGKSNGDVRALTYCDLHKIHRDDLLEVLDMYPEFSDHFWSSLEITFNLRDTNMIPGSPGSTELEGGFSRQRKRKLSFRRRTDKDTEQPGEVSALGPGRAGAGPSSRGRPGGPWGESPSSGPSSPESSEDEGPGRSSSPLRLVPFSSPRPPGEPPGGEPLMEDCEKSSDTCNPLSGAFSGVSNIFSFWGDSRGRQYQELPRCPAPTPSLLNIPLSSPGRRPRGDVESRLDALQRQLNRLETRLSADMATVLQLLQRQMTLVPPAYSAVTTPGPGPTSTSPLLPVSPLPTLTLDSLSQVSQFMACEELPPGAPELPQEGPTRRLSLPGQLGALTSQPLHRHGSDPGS

[22] = target: 2D6 (Homo sapiens, UniProt P10635); assay: CYP inhibition in vitro; assay type: in vitro ADME
Sequence of 2D6 (P10635 whole entry): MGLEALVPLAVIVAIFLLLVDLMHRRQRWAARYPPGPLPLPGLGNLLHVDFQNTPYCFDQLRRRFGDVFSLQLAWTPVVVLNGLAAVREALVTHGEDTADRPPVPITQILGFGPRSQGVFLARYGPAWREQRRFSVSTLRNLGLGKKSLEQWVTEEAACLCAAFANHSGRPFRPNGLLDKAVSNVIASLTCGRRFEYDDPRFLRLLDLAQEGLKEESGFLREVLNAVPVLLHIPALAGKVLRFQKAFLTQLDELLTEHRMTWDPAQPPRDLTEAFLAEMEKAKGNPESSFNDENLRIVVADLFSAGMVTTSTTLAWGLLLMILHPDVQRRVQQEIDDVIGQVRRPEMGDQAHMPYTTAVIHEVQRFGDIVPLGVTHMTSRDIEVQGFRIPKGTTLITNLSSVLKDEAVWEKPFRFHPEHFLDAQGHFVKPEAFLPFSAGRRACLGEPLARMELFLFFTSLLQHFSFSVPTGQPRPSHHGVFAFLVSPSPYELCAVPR

[23] = target: 3A4 (Homo sapiens, UniProt P08684); assay: CYP inhibition in vitro; assay type: in vitro ADME
Sequence of 3A4 (P08684 whole entry): as the sequence (P08684 whole entry, canonical isoform) above

[24] = system: endothelial recruitment; assay: inhibition of endothelial recruitment in vitro; assay type: cell-based
[25] = oral PK in CD-1 mice; assay type: in vivo
[26] = system: ApoE; assay: ApoE gene expression induction in cancer cells; assay type: cell-based
[27] = animal / pre-clinical toxicology studies; assay type: in vivo
[28] = system: CYP3A; assay: CYP induction in cryopreserved hepatocytes; assay type: in vitro ADME; settings: primary cultures of cryopreserved hepatocytes (2 donors)
[29] = initial solubility assessment in 12 solvents/solvent mixtures; assay type: physicochemical; settings: amorphous Compound 1, 12 solvents/solvent mixtures
Protocol: An initial solubility assessment was conducted in 12 solvents/solvent mixtures using amorphous Compound 1. […] Salt screening by cooling, anti-solvent addition, maturation, liquid assisted grinding, neat grinding and evaporation were all investigated. Gums isolated were subjected to heat/cool maturation cycles (room temperature/50° C.), sonication, prolonged storage under vacuum, prolonged storage at 40° C./75% RH, trituration with anti-solvent and liquid assisted grinding (LAG) with water. From extensive salt screening, eight hits were obtained. Amorphous hits with a high glass transition temperature (Tg) were identified from zinc chloride, naphthalene-2-sulfonic acid, 1,5-naphthalene disulfonic acid, and ethane sulfonic acid. One crystalline hit was identified from ethane sulfonic acid. Poorly crystalline material was isolated from calcium hydroxide, magnesium hydroxide and aluminum hydroxide.

[30] = stability of salts of Compound 1 during processing and formulation; settings: for stability of strong acid salts: readily undergo apparent esterification with alcoholic solvents; for stability towards excipients and/or components of a formulation: salts react with excipients and/or components of a formulation
[31] = cited from earlier work; remark: listed apart in the source
[32] = Table 6, counterion sources, second set Study 3
[33] = Table 5, counterion sources, first set Study 3

Compound: N[C@@H](Cc1c[nH]cn1)C(=O)O [Histidine]
pKa1 [1, 32]: 9.2

Compound: C[C@H](CCOc1cccc(CC(=O)O)c1)N(Cc1cccc(C(F)(F)F)c1Cl)CC(c1ccccc1)c1ccccc1 [Compound 1, 2-[3-[(3R)-3-[[2-chloro-3-(trifluoromethyl)phenyl]methyl-(2,2-diphenylethyl)amino]butoxy]phenyl]acetic acid]
mean apparent oral t % ([2]; female rats): 6.5 h | clearance, females versus males ([2]; rats): cleared at a lower rate in female rats compared to males | inhibition of 1A1 [3]: very weakly inhibited | metabolism by CYP3A4 [4]: metabolized predominantly | exposures at minimum efficacious doses ([5]; 25-40 mg/kg/day PO): 10,000-50,000 ng-h/mL | minimum efficacious doses ([5]; administered orally (PO), tumor growth studies): 25 to 40 mg/kg/day | dose limiting toxicity on single agent therapy ([6]; Compound 1 single agent therapy): DLT of Grade 4 neutropenia | hyperlipidemia in treated subjects ([6]; subjects treated with Compound 1): hyperlipidemia has been observed | inhibition of 2C19 [7]: very weakly inhibited | mean apparent oral t % [8]: 5 to 6.7 h | inhibition of 2A6 [9]: very weakly inhibited | inhibition of P-gp [10]: does not inhibit | induction of CYP1A2 [11]: did not induce | inhibition of 2C9 [12]: very weakly inhibited | CYP3A time-dependent inhibition (TDI) [13]: time-dependent inhibition (TDI) was demonstrated | induction of CYP2B6 [14]: > 2 fold | neurobehavioral FOB or respiratory evaluations [15]: no adverse effects | inhibition of 2E1 [16]: very weakly inhibited | effects on qualitative ECG parameters (PR or QTc intervals or QRS duration) [17]: no Compound 1-related effects | mean heart rate ([17]; Day 1 post-dose interval, significant in females at 150 (stepped down to 100) mg/kg/day): dose related decrease | Mean oral t % [18]: 5.5 to 8 h | substrate for other CYP isoforms [19]: also a substrate | EC50 ([20]; Homo sapiens): 271 nM | induction of ApoE gene expression ([20]; compared to control cells): up to 40 fold | hERG channel conductance [21]: significant increase, but not inhibition | inhibition of 2D6 [22]: very weakly inhibited | inhibition of 3A4 [23]: very weakly inhibited | inhibition of endothelial recruitment [24]: ~50% | food effect: plasma concentrations fed state [25]: > 2 fold | EC50 [26]: 385 nM | induction of ApoE gene expression ([26]; compared to control cells): 3 fold | potential risks based on animal toxicology studies ([27]; animal toxicology studies): elevations in serum cholesterol and TG, neutropenia/leukopenia, nausea and/or vomiting, elevations in liver enzymes, development or worsening of cataracts, cardiac rhythm disturbances and/or reduced cardiac function, harderian gland adenocarcinoma, and/or generalized edema | liver function in pre-clinical toxicity studies ([27]; pre-clinical toxicity studies): Liver function abnormalities have been observed | induction of CYP3A [28]: Induction of CYP3A by Compound 1 was demonstrated | solubility in solvents/solvent mixtures [29]: Dissolution was observed in most of the samples

Compound: O=C(O)c1cc2ccccc2c(Cc2c(O)c(C(=O)O)cc3ccccc23)c1O [Pamoic acid]
pKa1 [1, 32]: 2.5

Compound: O=[N+]([O-])O [Nitric acid]
pKa1 [1, 33]: −1.3

Compound: CCS(=O)(=O)O [Ethanesulfonic acid]
pKa1 [1, 33]: −1.6

stability of strong acid salts [30]: prone to instability | stability towards excipients and/or components of a formulation [30]: unstable
Compound: CS(=O)(=O)O [methanesulfonic acid]

Compound: [NH2][Pt]1([NH2])[O]C(=O)C2(CCC2)C(=O)[O]1 [Carboplatin, platinum, diamine[1,1-cyclobutanedicarboxylato(2-)-O,O′]-(SP-4-2)]
pH of a 1% solution ([31]; 1% solution): 5-7 | solubility in ethanol, acetone, and dimethylacetamide ([31]; ethanol, acetone, dimethylacetamide): virtually insoluble | solubility in water ([31]; water): approximately 14 mg/mL

Compound: O=S(=O)(O)CCS(=O)(=O)O [Ethane-1,2-disulfonic acid]
pKa1 [1, 33]: −2.1

Compound: O=S(=O)([O-])CCO.[Na+] [Sodium isethionate]
pKa1 [1, 32]: 1.7

Compound: C[N+](C)(C)CCO [Choline]
pKa1 [1, 33]: >11.0

Compound: N=C(N)NCCC[C@H](N)C(=O)O [L-Arginine]
pKa1 [1, 33]: 9.0

Compound: N#CS [Thiocyanic acid]
pKa1 [1, 32]: −1.3

Compound: OCCNCCO [Diethanolamine]
pKa1 [1, 33]: 9.5

Compound: O=C(O)CNC(=O)c1ccccc1 [Hippuric acid]
pKa1 [1, 32]: 3.6

Compound: NCCCC[C@H](N)C(=O)O [L-Lysine]
pKa1 [1, 32]: 9.2

Compound: O=S(=O)([O-])CCS(=O)(=O)[O-].[Na+].[Na+] [Sodium edisylate]
pKa1 [1, 32]: −2.1

Compound: O=S(=O)(O)c1ccc2ccccc2c1 [Naphthalene-2-sulfonic acid]
pKa1 [1, 33]: 0.17

Compound: H2SO4 [Compound H2SO4]
stability of strong acid salts [30]: prone to instability | stability towards excipients and/or components of a formulation [30]: unstable

Compound: OCCN1CCCC1 [1-(2-Hydroxyethyl)-pyrrolidine]
pKa1 [1, 32]: 9.4
